In US12590099B2, “Inhibitors of histone deacetylase useful for the treatment or prevention of HIV infection” (Merck Sharp & Dohme LLC, priority 2018, dated 2026):
Read-outs that look alike come from different tables or passages of the source.

How the values were obtained:
Format in all cases: biochemical
HDAC6 = biological target: T1, HDAC6 (Homo sapiens, UniProt Q9UBN7); assay: Human HDAC enzyme inhibitor Fluor-de-Lys assay, HDAC6
T1 sequence (Q9UBN7 1-1215): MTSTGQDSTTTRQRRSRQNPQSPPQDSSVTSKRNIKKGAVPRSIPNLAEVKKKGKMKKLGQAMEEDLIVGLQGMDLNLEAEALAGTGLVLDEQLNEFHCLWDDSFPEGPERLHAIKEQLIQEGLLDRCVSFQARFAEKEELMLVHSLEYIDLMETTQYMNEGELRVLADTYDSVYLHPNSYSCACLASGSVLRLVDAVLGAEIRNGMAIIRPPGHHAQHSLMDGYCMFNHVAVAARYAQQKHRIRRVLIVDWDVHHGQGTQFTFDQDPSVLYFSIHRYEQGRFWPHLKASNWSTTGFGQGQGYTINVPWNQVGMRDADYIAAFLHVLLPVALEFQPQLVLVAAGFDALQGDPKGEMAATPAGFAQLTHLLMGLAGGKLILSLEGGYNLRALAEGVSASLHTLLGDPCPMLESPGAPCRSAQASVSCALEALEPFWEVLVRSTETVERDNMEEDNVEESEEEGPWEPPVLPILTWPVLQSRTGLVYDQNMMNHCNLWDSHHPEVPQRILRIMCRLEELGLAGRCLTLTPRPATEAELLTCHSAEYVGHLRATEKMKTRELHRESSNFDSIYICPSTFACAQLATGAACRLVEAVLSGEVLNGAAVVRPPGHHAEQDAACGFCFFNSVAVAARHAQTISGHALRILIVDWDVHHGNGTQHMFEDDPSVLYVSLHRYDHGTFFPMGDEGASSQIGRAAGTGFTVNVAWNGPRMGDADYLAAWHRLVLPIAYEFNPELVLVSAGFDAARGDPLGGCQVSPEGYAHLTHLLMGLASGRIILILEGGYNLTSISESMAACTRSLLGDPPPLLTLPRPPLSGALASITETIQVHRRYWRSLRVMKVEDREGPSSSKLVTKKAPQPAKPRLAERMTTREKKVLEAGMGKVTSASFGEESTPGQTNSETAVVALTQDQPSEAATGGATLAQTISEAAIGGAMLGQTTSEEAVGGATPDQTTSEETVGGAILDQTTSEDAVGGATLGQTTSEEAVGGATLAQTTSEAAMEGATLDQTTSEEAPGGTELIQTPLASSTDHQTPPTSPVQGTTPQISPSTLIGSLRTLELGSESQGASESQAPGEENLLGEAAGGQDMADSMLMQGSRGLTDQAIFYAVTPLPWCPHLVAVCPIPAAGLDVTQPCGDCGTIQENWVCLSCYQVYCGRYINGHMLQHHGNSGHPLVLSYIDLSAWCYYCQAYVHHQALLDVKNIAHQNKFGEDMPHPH

Recombinant human HDAC2 = biological target: T2, Recombinant human HDAC2 (Homo sapiens, UniProt Q92769); assay: Human HDAC enzyme inhibitor Fluor-de-Lys assay, HDAC2
T2 construct: Full length human HDAC2-FLAG was expressed in baculovirus infected Sf9 cells; FLAG (C); made in house; host or cells: Sf9 (baculovirus)
T2 sequence (Q92769 whole entry): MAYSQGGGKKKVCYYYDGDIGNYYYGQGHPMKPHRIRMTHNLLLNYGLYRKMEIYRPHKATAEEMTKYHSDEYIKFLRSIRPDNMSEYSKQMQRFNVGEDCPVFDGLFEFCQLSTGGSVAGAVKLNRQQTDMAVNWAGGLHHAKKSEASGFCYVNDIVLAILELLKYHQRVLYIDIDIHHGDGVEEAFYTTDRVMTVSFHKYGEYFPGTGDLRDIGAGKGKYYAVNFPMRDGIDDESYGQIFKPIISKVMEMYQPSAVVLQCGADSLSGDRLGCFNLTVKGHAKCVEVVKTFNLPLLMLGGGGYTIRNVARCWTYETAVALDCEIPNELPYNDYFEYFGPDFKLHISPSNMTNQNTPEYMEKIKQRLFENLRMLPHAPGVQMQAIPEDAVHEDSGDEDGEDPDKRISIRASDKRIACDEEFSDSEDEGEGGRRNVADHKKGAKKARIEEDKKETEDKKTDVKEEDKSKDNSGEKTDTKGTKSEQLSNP
Outline: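 Fluor-de-Lys format at room temperature (23° C.): compounds titrated 10-point, 1:3, preincubated with HDAC before substrate addition. Developer with excess HDAC inhibitor ends the reaction, and trypsin-liberated AMC fluorescence is the read-out.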

[1] = biological target: T3, Recombinant human HDAC3/SMRT heterodimer (Homo sapiens, UniProt O15379); assay: Human HDAC enzyme inhibitor Fluor-de-Lys assay, HDAC3/SMRT
T3 construct: FLAG (C); made in house
T3 sequence (O15379 whole entry): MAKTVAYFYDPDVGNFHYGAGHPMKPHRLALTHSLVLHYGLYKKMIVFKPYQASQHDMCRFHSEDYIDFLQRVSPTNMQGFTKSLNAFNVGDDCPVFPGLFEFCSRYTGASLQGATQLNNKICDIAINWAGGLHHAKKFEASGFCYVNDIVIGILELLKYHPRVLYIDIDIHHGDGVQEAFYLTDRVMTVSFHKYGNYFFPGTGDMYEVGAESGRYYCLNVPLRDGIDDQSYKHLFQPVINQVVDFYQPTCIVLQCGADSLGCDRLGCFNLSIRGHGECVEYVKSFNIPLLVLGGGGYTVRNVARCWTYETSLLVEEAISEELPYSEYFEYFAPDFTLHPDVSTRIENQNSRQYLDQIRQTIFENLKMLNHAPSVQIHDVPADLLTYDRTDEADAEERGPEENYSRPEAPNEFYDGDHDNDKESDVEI
T3 sequence (Q9Y618 1-899 partner limits assumed): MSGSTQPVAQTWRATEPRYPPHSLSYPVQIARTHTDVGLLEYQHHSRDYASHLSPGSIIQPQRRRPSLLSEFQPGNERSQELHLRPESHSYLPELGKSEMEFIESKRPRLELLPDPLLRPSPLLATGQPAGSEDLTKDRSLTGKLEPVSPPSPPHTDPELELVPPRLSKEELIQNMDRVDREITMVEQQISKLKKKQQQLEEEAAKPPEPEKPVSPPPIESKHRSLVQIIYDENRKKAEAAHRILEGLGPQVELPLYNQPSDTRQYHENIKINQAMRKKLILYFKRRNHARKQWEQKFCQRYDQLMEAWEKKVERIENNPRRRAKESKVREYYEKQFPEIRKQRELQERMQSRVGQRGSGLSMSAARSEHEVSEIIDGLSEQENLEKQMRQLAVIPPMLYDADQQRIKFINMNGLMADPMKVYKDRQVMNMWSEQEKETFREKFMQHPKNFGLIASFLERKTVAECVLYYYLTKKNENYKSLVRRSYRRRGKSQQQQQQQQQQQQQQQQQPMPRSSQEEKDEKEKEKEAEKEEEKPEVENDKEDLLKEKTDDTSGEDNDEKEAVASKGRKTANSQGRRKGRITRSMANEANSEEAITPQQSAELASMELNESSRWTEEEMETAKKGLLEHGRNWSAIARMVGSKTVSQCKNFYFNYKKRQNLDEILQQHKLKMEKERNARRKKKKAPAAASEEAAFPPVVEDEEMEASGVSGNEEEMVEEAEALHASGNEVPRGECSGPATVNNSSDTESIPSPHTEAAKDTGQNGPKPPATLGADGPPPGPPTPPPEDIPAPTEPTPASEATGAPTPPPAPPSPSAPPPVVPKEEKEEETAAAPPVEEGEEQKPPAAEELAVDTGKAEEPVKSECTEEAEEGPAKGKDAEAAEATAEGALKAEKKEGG

Recombinant human HDAC8 = biological target: T4, Recombinant human HDAC8 (Homo sapiens, UniProt Q9BY41); assay: Human HDAC enzyme inhibitor Fluor-de-Lys assay, HDAC8
T4 construct: purchased Enzo Life Sciences BML-SE145-0100
T4 sequence (Q9BY41 1-377): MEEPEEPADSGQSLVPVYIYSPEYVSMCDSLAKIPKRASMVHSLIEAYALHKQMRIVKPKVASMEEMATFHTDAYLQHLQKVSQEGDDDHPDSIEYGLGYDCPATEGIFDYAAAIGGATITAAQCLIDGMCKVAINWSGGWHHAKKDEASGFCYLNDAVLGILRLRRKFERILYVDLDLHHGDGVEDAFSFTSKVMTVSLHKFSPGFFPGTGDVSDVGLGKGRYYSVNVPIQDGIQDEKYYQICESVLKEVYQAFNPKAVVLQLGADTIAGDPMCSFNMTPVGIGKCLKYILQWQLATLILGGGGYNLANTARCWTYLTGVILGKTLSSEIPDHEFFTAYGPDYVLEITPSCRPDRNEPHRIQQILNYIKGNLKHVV

[2] = recombinant human HDAC2, Fluor-de-Lys assay
[3] = recombinant human HDAC3/SMRT, Fluor-de-Lys assay
[4] = recombinant human HDAC8, Fluor-de-Lys assay

| SMILES | IC50 (HDAC6; HDAC6, Fluor-de-Lys assay) | IC50 (Recombinant human HDAC2; [2]) | IC50 [1, 3] | IC50 (Recombinant human HDAC8; [4]) | IC50 (HDAC6) | IC50 (Recombinant human HDAC2) | IC50 [1] | IC50 (Recombinant human HDAC8) |
| --- | --- | --- | --- | --- | --- | --- | --- | --- |
| CCC(=O)CCCCC[C@H](NC(=O)CC1CC2(C1)CN(C(C)=O)C2)c1ncc(-c2ccccc2)[nH]1 [Compound 300, (S)-2-(2-acetyl-2-azaspiro[3.3]heptan-6-yl)-N-(7-oxo-1-(5-phenyl-1H-imidazol-2-yl)nonyl)acetamide] | 23.2 µM | 0.802 µM | 0.0387 µM | 11.1 µM |  |  |  |  |
| CCC(=O)CCCCC[C@H](NC(=O)[C@H]1CC12CCN(C)CC2)c1ncc(-c2ccc3cc(C#N)ccc3c2)[nH]1 [Compound 90] |  |  |  |  | 1.01 µM | 0.0016 µM | 0.00038 µM | 2.64 µM |
| CCC(=O)CCCCC[C@H](NC(=O)[C@H]1CC12CCN(C)CC2)c1ncc(-c2ccc(F)cc2F)[nH]1 [Compound 289] | 10.4 µM | 0.259 µM | 0.0217 µM | 3.75 µM |  |  |  |  |
| CCC(=O)CCCCC[C@H](NC(=O)[C@H]1CC12CCN(C)CC2)c1nc(Cl)c(-c2cc3ccccc3nc2O)[nH]1 [Compound 81, (1S)—N-{(1S)-1-[4-chloro-5-(2-hydroxyquinolin-3-yl)-1H-imidazol-2-yl]-7-oxononyl}-6-methyl-6-azaspiro[2.5]octane-1-carboxamide] |  |  |  |  | 3.87 µM | 0.337 µM | 0.069 µM | 5.35 µM |
| CCC(=O)CCCCC[C@H](N)c1ncc(-c2cc3ccc(=O)n(C)c3cc2OC)o1 [Compound 224] | > 0.9 µM | 0.445 µM | 0.0921 µM | > 0.9 µM |  |  |  |  |
| CCC(=O)CCCCC[C@H](NC(=O)[C@H]1CC12CCN(C)CC2)c1ncc(-c2ccc(C(F)(F)F)cc2)[nH]1 [Compound 284] | 13.4 µM | 0.0821 µM | 0.00609 µM | 15 µM |  |  |  |  |
| CCC(=O)CCCCC[C@H](NC(=O)C1=NOC2(CCN(CC3CC3)CC2)C1)c1ncc(-c2cc3ccc(C)nc3cc2OC)o1 [Compound 225] | 0.759 µM | 0.0062 µM | 0.00114 µM | > 0.9 µM |  |  |  |  |
| CCCC(=O)CCCCC[C@H](NC(=O)[C@H]1CC12CCN(C)CC2)c1ncc(-c2ccc(F)cc2)[nH]1 [Compound 239] | > 45 µM | 0.0774 µM | 0.0153 µM | 20.6 µM |  |  |  |  |
| CCC(=O)CCCCCC(NC(=O)C1CCC2(CC1)OC(=O)c1ccncc12)c1nnc(-c2cc3ccccc3nc2OC)o1 (stereo not drawn) [Compound 363] | 2.04 µM | 0.234 µM | 0.0335 µM | 25.5 µM |  |  |  |  |
| CCC(=O)CCCCC[C@H](NC(=O)[C@H]1CC12CCN(C)CC2)c1ncc(-c2ccc3ccc(C)nc3c2F)[nH]1 [Compound 354] | 0.354 µM | 0.0113 µM | 0.00218 µM | 0.798 µM |  |  |  |  |
| CCC(=O)CCCCC[C@H](NC(=O)[C@H]1CC12CCN(CC)CC2)c1ncc(-c2ccc3c(ccc(=O)n3C)c2)o1 [Compound 97] |  |  |  |  | 7.09 µM | 0.023 µM | 0.00438 µM | > 45 µM |
| CCC(=O)CCCCC[C@H](NC(=O)C1CC12CC1CCC(C2)N1C)c1ncc(-c2ccc3ncccc3c2)[nH]1 (single isomer, unassigned) [Compound 242] | 0.133 µM | 0.0161 µM | < 0.0015 µM | 5.1 µM |  |  |  |  |
| CCC(=O)CCCCC[C@H](NC(=O)[C@H]1CC12CCN(C)CC2)c1ncc(-c2coc3ccccc3c2=O)[nH]1 [Compound 86] |  |  |  |  | 3.33 µM | 0.0648 µM | 0.0121 µM | 3.17 µM |
| CCC(=O)CCCCC[C@H](NC(=O)C1=NOC2(CCN(CC3CC3)CC2)C1)c1ncc(-c2cc3ccc(=O)n(C)c3cc2OC)o1 [Compound 236] | > 0.9 µM | 0.0099 µM | 0.00107 µM | > 0.9 µM |  |  |  |  |
| CN1CCC2(CC1)C[C@@H]2C(=O)N[C@@H](CCCCCC(=O)CC1CC1)c1ncc(-c2ccc(F)cc2)[nH]1 [Compound 84] |  |  |  |  | 3.78 µM | 0.0638 µM | 0.0163 µM | 14.3 µM |
